Test results from article PMC13295013 (Nature chemical biology, 2026).
One block for each molecule: values may come before it.

Assays:
Assay type in all cases: cell-based
[1] = tested on: pMek levels in CIAR-293 cells; test: pMek levels in CIAR-293 cells treated with A115 or DMSO; conditions: A115 1 h
[2] = tested on: pErk levels in Mia PaCa-2 cells; test: Raf inhibitor and Mek inhibitor cotreatments, pErk, Mia PaCa-2 cells
[3] = molecular target: high-affinity Raf:Mek interactions (Homo sapiens, UniProt Q02750); test: Co-immunoprecipitation of Raf with Mek from Mia PaCa-2 cells treated with partial inhibitory doses of Mek inhibitors; conditions: 4 h
[4] = tested on: pMek levels in mutant KRas-expressing lines; test: pMek levels in mutant KRas-expressing cell lines treated with Mek inhibitors; conditions: multiple mutant KRas-expressing lines, 4 h
ARaf:CRaf heterodimers = ARaf:CRaf heterodimers (Homo sapiens, UniProt P04049+P10398); test: Co-immunoprecipitation of ARaf with CRaf in MiaPaCa-2 cells treated with LXH-254; conditions: Mia PaCa-2 cells
[5] = tested on: pErk levels in MDA-MB-231 cells; test: LXH-254 titration, pErk western blot, MDA-MB-231 cells; conditions: 4 h LXH-254 treatment
[6] = tested on: pErk levels in CIAR-293 cells; test: Inhibitor titrations in CIAR-293 cells (pErk); conditions: A115 or DMSO 1 h, then LXH-254 3 h
[7] = tested on: pErk levels in MDA-MB-453 cells; test: LXH-254 titration, pErk western blot, MDA-MB-453 cells; conditions: 4 h LXH-254 treatment
[8] = tested on: pErk levels in HCT-116 cells (single encorafenib-occupied Raf dimers); test: Encorafenib and LXH-254 cotreatment, pErk, HCT-116 cells; conditions: encorafenib 1 h, then LXH-254 3 h
[9] = tested on: pErk levels in HCT-116 (G13D KRas/WT Raf) cells; test: LXH-254 titration, pErk western blot, HCT-116 cells
[10] = tested on: pErk levels in Mia PaCa-2 cells; test: LXH-254 titration, pErk western blot, Mia PaCa-2 cells; conditions: at 10–50 μM LXH-254
[11] = tested on: pErk levels in Mia Paca-2 cells (single encorafenib-occupied Raf dimers); test: Encorafenib and LXH-254 cotreatment, pErk, Mia Paca-2 cells; conditions: encorafenib 1 h, then LXH-254 3 h
[12] = tested on: pErk levels in MDA-MB-453 cells (single encorafenib-occupied Raf dimers); test: Encorafenib and LXH-254 cotreatment, pErk, MDA-MB-453 cells; conditions: encorafenib 1 h, then LXH-254 3 h
[13] = tested on: pErk levels in MDA-MB-453 cells; test: Bliss synergy analysis of cobimetinib/LXH-254 pErk titration data, MDA-MB-453 cells; conditions: combination with LXH-254, MDA-MB-453 cells, p < 0.05
[14] = Mia Paca-2 cells, partial (~85%) inhibitory dose 1 h, then LXH-254 3 h

Chain of high-affinity Raf:Mek interactions (Q02750 whole entry): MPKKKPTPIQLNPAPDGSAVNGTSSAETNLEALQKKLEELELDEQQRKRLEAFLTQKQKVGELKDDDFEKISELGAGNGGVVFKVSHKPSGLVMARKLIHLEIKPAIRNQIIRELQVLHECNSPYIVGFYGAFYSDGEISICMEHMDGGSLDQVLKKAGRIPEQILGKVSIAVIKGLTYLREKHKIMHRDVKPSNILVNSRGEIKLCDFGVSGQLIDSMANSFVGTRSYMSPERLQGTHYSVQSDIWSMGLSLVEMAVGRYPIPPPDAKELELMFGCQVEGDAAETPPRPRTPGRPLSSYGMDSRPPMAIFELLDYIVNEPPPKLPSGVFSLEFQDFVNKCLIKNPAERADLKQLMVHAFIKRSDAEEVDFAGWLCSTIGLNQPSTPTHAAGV
Chain of ARaf:CRaf heterodimers (P10398 whole entry): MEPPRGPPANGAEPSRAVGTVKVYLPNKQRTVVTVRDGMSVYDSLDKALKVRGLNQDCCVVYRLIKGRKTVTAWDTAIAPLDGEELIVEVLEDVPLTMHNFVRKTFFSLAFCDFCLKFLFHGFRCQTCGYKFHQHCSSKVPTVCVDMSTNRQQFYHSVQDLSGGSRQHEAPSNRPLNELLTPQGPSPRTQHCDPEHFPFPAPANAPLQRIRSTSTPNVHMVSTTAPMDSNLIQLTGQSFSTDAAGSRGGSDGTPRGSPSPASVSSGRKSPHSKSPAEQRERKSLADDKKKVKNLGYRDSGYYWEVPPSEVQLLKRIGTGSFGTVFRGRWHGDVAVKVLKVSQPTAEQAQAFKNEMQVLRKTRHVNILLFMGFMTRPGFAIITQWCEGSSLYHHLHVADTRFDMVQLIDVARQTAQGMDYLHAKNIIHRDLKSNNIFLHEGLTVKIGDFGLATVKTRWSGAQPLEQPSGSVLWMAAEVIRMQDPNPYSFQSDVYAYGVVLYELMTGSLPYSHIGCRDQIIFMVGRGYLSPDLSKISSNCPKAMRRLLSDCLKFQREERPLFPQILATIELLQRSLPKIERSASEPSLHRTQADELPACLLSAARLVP
Chain of ARaf:CRaf heterodimers (P04049 whole entry): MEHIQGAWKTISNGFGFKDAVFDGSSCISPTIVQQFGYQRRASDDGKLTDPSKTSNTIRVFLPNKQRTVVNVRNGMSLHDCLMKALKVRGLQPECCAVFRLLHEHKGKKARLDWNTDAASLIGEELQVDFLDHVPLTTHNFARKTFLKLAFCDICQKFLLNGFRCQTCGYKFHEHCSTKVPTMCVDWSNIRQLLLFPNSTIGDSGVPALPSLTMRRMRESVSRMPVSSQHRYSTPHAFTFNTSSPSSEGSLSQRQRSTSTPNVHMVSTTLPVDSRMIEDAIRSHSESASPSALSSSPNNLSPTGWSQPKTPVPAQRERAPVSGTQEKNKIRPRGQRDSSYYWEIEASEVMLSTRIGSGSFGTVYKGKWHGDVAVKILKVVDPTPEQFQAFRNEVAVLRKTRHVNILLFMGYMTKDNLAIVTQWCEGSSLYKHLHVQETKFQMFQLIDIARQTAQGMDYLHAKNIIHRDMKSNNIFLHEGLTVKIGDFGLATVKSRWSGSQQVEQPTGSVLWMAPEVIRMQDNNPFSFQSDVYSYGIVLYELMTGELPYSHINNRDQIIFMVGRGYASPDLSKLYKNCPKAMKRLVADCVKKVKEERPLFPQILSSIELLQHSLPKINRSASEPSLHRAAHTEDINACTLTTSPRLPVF

SMILES: CN(C)CC#Cc1ccc(OCCCc2sc(N3CCc4cccc(C(=O)Nc5nc6ccccc6s5)c4C3)nc2C(=O)O)c(F)c1 [A115]
pMek levels upon A115 treatment versus DMSO [1]: four-fold higher

effect of Mek inhibitor pretreatment on LXH-254 pErk IC50 / inhibitory activity [2, 14]: potently antagonizes
effect on high-affinity Raf:Mek interactions [3]: promoted
SMILES: CNS(=O)(=O)Nc1nccc(Cc2c(C)c3ccc(Oc4ncccn4)cc3oc2=O)c1F [CH5126766]
effect on pMek (Mek activation) relative to DMSO [4]: either reduced or minimally affected

LXH-254 concentrations at which ARaf was recruited into heterodimers with CRaf (ARaf:CRaf heterodimers): 10 to 50 µM
pErk IC50 [5]: double-digit nanomolar
IC50 ([2]; Homo sapiens, MIA PaCa-2, read-out: LXH-254 pErk IC50, DMSO pretreatment): 590 nM
pErk IC50 [7]: micromolar
decrease in LXH-254 pErk IC50 after encorafenib pretreatment and washout [8]: 2-3 fold
pErk IC50 ([9]; 4 h LXH-254 treatment): double-digit nanomolar
decrease in LXH-254 pErk IC50 after encorafenib pretreatment and washout [11]: ~ 30 fold
decrease in LXH-254 pErk IC50 after encorafenib pretreatment and washout [12]: ~ 20 fold
SMILES: Cc1ccc(NC(=O)c2ccnc(C(F)(F)F)c2)cc1-c1cc(OCCO)nc(N2CCOCC2)c1 [LXH-254]
change of pErk IC50 in A115-treated versus DMSO-treated CIAR-293 cells [6]: four-fold lower
treatment time at which maximal and stable inhibition of downstream signaling (pErk) was achieved ([9]; time course, 32 nM LXH-254, n=1): 4 h
decrease of pErk levels [10]: > 80%

increase in LXH-254's potency (pErk IC50) after Mek inhibitor pretreatment [2, 14]: ~ 4 fold
effect on high-affinity Raf:Mek interactions [3]: disrupted
SMILES: O=C(c1ccc(F)c(F)c1Nc1ccc(I)cc1F)N1CC(O)([C@@H]2CCCCN2)C1 [cobimetinib]
average Bliss score [13]: 8.72
effect on pMek (Mek activation) relative to DMSO [4]: greatly enhanced
